Test results: ChEMBL document CHEMBL3621178, “Antidiabetic effect of novel benzenesulfonylureas as PPAR-γ agonists and their anticancer effect” (Bioorg Med Chem Lett, 2015)
Activity calls are given as the source filed them. No cut-off for these calls is given here.

What was measured:
[1] = system: Rattus norvegicus; assay: Antidiabetic activity in STZ-induced diabetic Wistar rat model assessed as reduction in blood glucose level at 30 mg/kg, po repeated for 15 days by GOD-POD method; format: functional, organism-based
[2] = target: T1, Peroxisome proliferator-activated receptor gamma (Homo sapiens) (UniProt P37231); assay: Agonist activity at PPARgamma (unknown origin) expressed in HEK293 cells assessed as receptor transactivation at 10 uM incubated for 24 hrs by luciferase reporter gene assay; format: cell-based
T1 sequence (whole entry): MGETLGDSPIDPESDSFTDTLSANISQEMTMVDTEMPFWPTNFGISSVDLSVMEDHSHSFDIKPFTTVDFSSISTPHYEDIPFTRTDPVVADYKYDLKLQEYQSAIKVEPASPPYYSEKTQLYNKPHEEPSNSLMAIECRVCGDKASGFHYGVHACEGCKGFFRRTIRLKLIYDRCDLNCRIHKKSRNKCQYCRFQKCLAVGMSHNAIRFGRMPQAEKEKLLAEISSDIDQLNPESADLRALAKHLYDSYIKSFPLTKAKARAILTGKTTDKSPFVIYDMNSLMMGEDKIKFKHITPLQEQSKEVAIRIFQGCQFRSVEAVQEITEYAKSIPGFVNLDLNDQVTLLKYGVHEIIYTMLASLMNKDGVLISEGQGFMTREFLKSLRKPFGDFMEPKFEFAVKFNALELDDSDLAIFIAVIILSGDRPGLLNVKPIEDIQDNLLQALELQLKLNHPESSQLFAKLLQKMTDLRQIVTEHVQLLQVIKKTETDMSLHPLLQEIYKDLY

[3] = system: Rattus norvegicus; assay: Toxicity in STZ-induced diabetic Wistar rat model assessed as increase in body weight at 30 mg/kg, po repeated for 15 days […]; format: organism-based; conditions: in vivo, 360 h
[4] = system: CCRF-CEM; assay: Growth inhibition of human CCRF-CEM cells assessed as cell viability at 10 uM incubated for 48 hrs by sulforhodamine B assay; format: functional; conditions: read-out: Activity
[5] = system: A549; assay: Growth inhibition of human A549/ATCC cells assessed as cell viability at 10 uM incubated for 48 hrs by sulforhodamine B assay; format: functional; conditions: A549, 48 h, read-out: Activity
[6] = system: NCI-H23; assay: Growth inhibition of human NCI-H23 cells assessed as cell viability at 10 uM incubated for 48 hrs by sulforhodamine B assay; format: functional; conditions: NCI-H23, 48 h, read-out: Activity
[7] = system: NCI-H522; assay: Growth inhibition of human NCI-H522 cells assessed as cell viability at 10 uM incubated for 48 hrs by sulforhodamine B assay; format: functional; conditions: NCI-H522, 48 h, read-out: Activity
[8] = Growth inhibition of human HCC2998 cells assessed as cell viability at 10 uM incubated for 48 hrs by sulforhodamine B assay; format: functional; conditions: HCC 2998, 48 h, read-out: Activity
[9] = system: HCT-116; assay: Growth inhibition of human HCT116 cells assessed as cell viability at 10 uM incubated for 48 hrs by sulforhodamine B assay; format: functional; conditions: HCT-116, 48 h, read-out: Activity
[10] = system: SF-268; assay: Growth inhibition of human SF268 cells assessed as cell viability at 10 uM incubated for 48 hrs by sulforhodamine B assay; format: functional; conditions: SF-268, 48 h, read-out: Activity
[11] = system: SNB-19; assay: Growth inhibition of human SNB19 cells assessed as cell viability at 10 uM incubated for 48 hrs by sulforhodamine B assay; format: functional; conditions: SNB-19, 48 h, read-out: Activity
[12] = system: MDA-MB-435; assay: Growth inhibition of human MDA-MB-435 cells assessed as cell viability at 10 uM incubated for 48 hrs by sulforhodamine B assay; format: functional; conditions: MDA-MB-435, 48 h, read-out: Activity
[13] = system: SK-MEL-2; assay: Growth inhibition of human SK-MEL-2 cells assessed as cell viability at 10 uM incubated for 48 hrs by sulforhodamine B assay; format: functional; conditions: SK-MEL-2, 48 h, read-out: Activity
[14] = system: SK-MEL-5; assay: Growth inhibition of human SK-MEL-5 cells assessed as cell viability at 10 uM incubated for 48 hrs by sulforhodamine B assay; format: functional; conditions: SK-MEL-5, 48 h, read-out: Activity
[15] = system: UACC-257; assay: Growth inhibition of human UACC257 cells assessed as cell viability at 10 uM incubated for 48 hrs by sulforhodamine B assay; format: functional; conditions: UACC-257, 48 h, read-out: Activity
[16] = system: IGROV-1; assay: Growth inhibition of human IGROV1 cells assessed as cell viability at 10 uM incubated for 48 hrs by sulforhodamine B assay; format: functional; conditions: IGROV-1, 48 h, read-out: Activity
[17] = system: OVCAR-3; assay: Growth inhibition of human OVCAR3 cells assessed as cell viability at 10 uM incubated for 48 hrs by sulforhodamine B assay; format: functional; conditions: OVCAR-3, 48 h, read-out: Activity
[18] = Growth inhibition of human NCI-ADR-RES cells assessed as cell viability at 10 uM incubated for 48 hrs by sulforhodamine B assay; format: functional; conditions: read-out: Activity
[19] = system: 786-0; assay: Growth inhibition of human 786-0 cells assessed as cell viability at 10 uM incubated for 48 hrs by sulforhodamine B assay; format: functional; conditions: 786-0, 48 h, read-out: Activity
[20] = system: TK-10; assay: Growth inhibition of human TK10 cells assessed as cell viability at 10 uM incubated for 48 hrs by sulforhodamine B assay; format: functional; conditions: TK-10, 48 h, read-out: Activity
[21] = system: UO-31; assay: Growth inhibition of human UO31 cells assessed as cell viability at 10 uM incubated for 48 hrs by sulforhodamine B assay; format: functional; conditions: UO-31, 48 h, read-out: Activity
[22] = system: PC-3; assay: Growth inhibition of human PC3 cells assessed as cell viability at 10 uM incubated for 48 hrs by sulforhodamine B assay; format: functional; conditions: PC-3, 48 h, read-out: Activity
[23] = system: DU-145; assay: Growth inhibition of human DU145 cells assessed as cell viability at 10 uM incubated for 48 hrs by sulforhodamine B assay; format: functional; conditions: DU-145, 48 h, read-out: Activity
[24] = system: MCF7; assay: Growth inhibition of human MCF7 cells assessed as cell viability at 10 uM incubated for 48 hrs by sulforhodamine B assay; format: functional; conditions: MCF7, 48 h, read-out: Activity
[25] = system: MDA-MB-231; assay: Growth inhibition of human MDA-MB-231 cells assessed as cell viability at 10 uM incubated for 48 hrs by sulforhodamine B assay; format: functional; conditions: MDA-MB-231, 48 h, read-out: Activity

SMILES | Activity [1] | viability at 10 µM [4] [%] | viability at 10 µM [5] [%] | viability at 10 µM [6] [%] | viability at 10 µM [8] [%] | viability at 10 µM [9] [%] | viability at 10 µM [10] [%] | viability at 10 µM [11] [%] | viability at 10 µM [12] [%] | viability at 10 µM [14] [%] | viability at 10 µM [15] [%] | viability at 10 µM [16] [%] | viability at 10 µM [17] [%] | viability at 10 µM [18] [%] | viability at 10 µM [19] [%] | viability at 10 µM [21] [%] | viability at 10 µM [22] [%] | viability at 10 µM [23] [%] | viability at 10 µM [24] [%] | viability at 10 µM [25] [%] | other results
COc1ccc(C2CC(c3ccco3)=NN2c2ccc(S(=O)(=O)NC(=O)NCc3ccccc3)cc2)cc1 (configuration not stated) | Active | 99 | 92.8 | 108 | 109 | 93.9 | 103 | 108 | 103 | 102 | 97.9 | 113 | 113 | 104 | 98.6 | 99.4 | 92.4 | 108 | 94.7 | 112 | Activity [2]: Active; Activity [3]: Non-toxic; viability at 10 µM [7]: 86.3%; viability at 10 µM [13]: 90.7%; viability at 10 µM [20]: 93%
O=C(NCc1ccccc1)NS(=O)(=O)c1ccc(N2N=C(c3cc4ccccc4oc3=O)CC2c2cccs2)cc1 (configuration not stated) |  | 108 | 99.3 | 101 | 106 | 106 | 103 | 108 | 103 | 101 | 104 | 117 | 106 | 103 | 95.3 | 95.7 | 108 | 110 | 94.4 | 103 | viability at 10 µM [7]: 96.3%; viability at 10 µM [13]: 96%; viability at 10 µM [20]: 108%
COc1ccc(C2CC(c3cc4ccccc4oc3=O)=NN2c2ccc(S(=O)(=O)NC(=O)Nc3ccccc3C)cc2)cc1 (configuration not stated) | Active | 92.6 | 96.6 | 87.7 | 107 | 82.6 | 101 | 102 | 102 | 97.2 | 113 | 109 | 107 | 98.1 | 94.2 | 68.9 | 81 | 111 | 91.1 | 65.9 | Activity [2]: Active; Activity [3]: Non-toxic
CN(C)c1ccc(C2CC(c3cc4ccccc4oc3=O)=NN2c2ccc(S(=O)(=O)NC(=O)NCc3ccccc3)cc2)cc1 (configuration not stated) |  | 72 | 61 | 67.3 | 90 | 48.5 | 87.9 | 82 | 65.5 | 62.7 | 64.9 | 97.8 | 82.2 | 83.1 | 68.4 | 44.9 | 67.1 | 84.9 | 47.6 | 78.1 | 
COc1ccc(NC(=O)NS(=O)(=O)c2ccc(N3N=C(c4cc5ccccc5oc4=O)CC3c3ccc(N(C)C)cc3)cc2)cc1 (configuration not stated) |  | 107 | 95 | 85.1 | 104 | 82.6 | 98.8 | 103 | 102 | 98.4 | 96.3 | 109 | 102 | 100 | 96.9 | 86 | 97.6 | 111 | 83.1 | 97 | 
